Measured values published in patent US4347319A, “Microbiological epoxidation process” (priority 1980, dated 1982).

Biological target: T1, cell fractions of Methylosinus sp. (CRL-15, NRRL B-11,202) (Methylosinus trichosporium, UniProt Q50541+Q9KX50+Q9KX51)
T1 sequence (Q9KX50 40-431): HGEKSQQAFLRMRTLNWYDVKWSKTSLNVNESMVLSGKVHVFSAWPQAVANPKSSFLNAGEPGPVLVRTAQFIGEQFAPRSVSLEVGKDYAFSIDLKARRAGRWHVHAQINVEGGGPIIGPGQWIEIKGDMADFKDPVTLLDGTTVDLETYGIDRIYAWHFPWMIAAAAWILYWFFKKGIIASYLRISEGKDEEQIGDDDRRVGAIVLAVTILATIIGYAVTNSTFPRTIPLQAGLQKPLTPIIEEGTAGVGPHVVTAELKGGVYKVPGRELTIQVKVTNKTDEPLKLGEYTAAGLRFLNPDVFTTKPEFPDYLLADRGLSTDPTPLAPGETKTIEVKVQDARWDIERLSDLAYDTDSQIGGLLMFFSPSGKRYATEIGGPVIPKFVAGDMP
T1 sequence (Q50541 1-252): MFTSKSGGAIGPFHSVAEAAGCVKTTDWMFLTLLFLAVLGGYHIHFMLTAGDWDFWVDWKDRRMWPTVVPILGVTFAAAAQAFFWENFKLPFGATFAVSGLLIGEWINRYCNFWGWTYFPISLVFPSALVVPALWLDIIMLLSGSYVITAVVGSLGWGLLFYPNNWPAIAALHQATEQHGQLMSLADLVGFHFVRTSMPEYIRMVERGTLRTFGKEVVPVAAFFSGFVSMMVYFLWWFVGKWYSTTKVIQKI
T1 sequence (Q9KX51 1-256): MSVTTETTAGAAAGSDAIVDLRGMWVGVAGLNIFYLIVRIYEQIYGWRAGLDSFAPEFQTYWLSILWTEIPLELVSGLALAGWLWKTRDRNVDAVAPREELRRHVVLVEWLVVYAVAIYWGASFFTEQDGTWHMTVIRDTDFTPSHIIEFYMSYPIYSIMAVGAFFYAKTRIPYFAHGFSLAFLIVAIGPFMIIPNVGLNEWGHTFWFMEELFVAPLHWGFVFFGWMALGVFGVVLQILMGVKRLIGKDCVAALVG
Assay: Oxidation by cell fractions P(40), P(80), S(80)
Format: biochemical
Conditions: P(40) particulate fraction; alkene to epoxide, alkane to alcohol; 30° C.
Experimental: Cells were washed twice with 25 mM potassium phosphate buffer, pH 7.0 containing 5 mM MgCl2. Cells were suspended in the same buffer. The cell suspensions at 4° C. were disintegrated by a single passage through a French Pressure cell (15,000 lb./in.^2) and centrifuged at 5000×g. for 15 min. to remove unbroken bacteria. The supernatant solution (crude extract) was then centrifuged at 40,000×g. for 30 min., yielding particulate P(40) and soluble S(40) fractions. The S(40) fraction was subsequently centrifuged at 80,000×g. for 60 min., yielding particulate P(80) and soluble S(80) fractions. The particulate fractions [P(40) and P(80)] were suspended in 25 mM potassium phosphate buffer, pH 7.0, containing 5 mM MgCl2 and homogenized at 4° C.
(§1) The oxidation of methane and propylene by particulate [(P)40 and (P)80] fractions and soluble [S(80)] fraction was measured at 30° C. by estimating the production of methanol and propylene oxide, respectively. The reaction mixtures contained in […]: 150 mM potassium phosphate buffer, pH 7.0 containing 5 mM MgCl2 b, 0.6 ml; 10μ moles NADH, and cellular fraction.
(§2) Reaction mixtures were contained in 10 ml vials at 4° C. Vials were sealed with rubber caps. The gaseous phase in the vials was removed using vacuum and then was replaced with a gas mixture of methane or propylene and oxygen at a 1:1, v/v ratio. Oxidation of other gaseous n-alkanes and n-alkanes was examined as described above. For liquid substrates, 10 μl of substrate was used directly.
The products of epoxidation of n-alkenes and hydroxylation of n-alkanes were assayed by flame ionization gas chromatography using a stainless steel column (12'×1/8") packed with 10% Carbowax 20 M on 80/100 Chromosorb W and Porapak Q column. The column temperature was maintained isothermally at 120° C. The carrier gas flow rate was 30 ml/min. of helium. The various products were identified by retention time comparisons and co-chromatography with authentic standards.
Specific activities were expressed as μ moles of products formed per hour per mg. protein. Concentrations of protein in various fractions were determined by the method of Lowry et al., J. Biol. Chem., 193: 265-275 (1951).

Compound | Rate of Product Formation
CC [Ethane] | 3.2 μ moles/hr/mg of protein

System: purified secondary alcohol dehydrogenase (SADH) from Pseudomonas sp. ATCC 21439
Assay: Effect of metal-chelating agents and thio reagents on purified SADH
Format: biochemical
Conditions: not given
Experimental: Secondary alcohol dehydrogenase (SADH) from an obligate methanol utilizer, Pseudomonas sp. ATCC 21439 was purified as follows. […] 0.05 M sodium phosphate buffer, pH 7.0 with 0.5 mM dithiothretol (buffer A) and were disrupted sonically (5×1 min.). The crude extract was separated by centrifugation. The crude extract was heat-treated at 50° C. in a water bath for 10 minutes. The resulting precipitate was removed by centrifugation. To the supernatant solution, 25 ml of protamine sulfate solution (2% solution in 0.1 M Tris base) was added dropwise with continuous stirring. After standing for 30 minutes, the extract was centrifuged. The supernatant solution was fractionated with solid ammonium sulfate. […] This DEAE-cellulose eluate was concentrated by ammonium sulfate fractionation. Material precipitating between 30 and 50% ammonium sulfate saturation was collected by centrifugation and dialyzed overnight against A. This fraction was further washed and filtered through an Amicon unit with XM 50 membrane. The concentrated fraction (6 ml) inside the Amicon unit was applied to an Affi-Gel Blue column (0.8 cm×18 cm) which had been equilibrated with buffer A for affinity chromatography. The column was washed overnight with buffer A (0.18 ml./min.) and then was eluted with buffer A containing 5 mM NAD. Each 1 ml. fraction was collected.
The purified secondary alcohol dehydrogenase enzyme (SADH) may be used directly for converting C3 -C6 secondary alcohols to the corresponding methyl ketones by the procedures described above; however, a source of NAD^+ must be added to the reaction medium. One can determine the NAD-linked secondary alcohol dehydrogenase activity with a fluorescence spectrophotometer (Perkin Elmer, Model MPF 44A) by following the formation of reduced NAD (Ex 340 nm, Em 460 nm). The assay system (3 ml.) will typically contain: sodium phosphate buffer pH 7.0, 150 μmol; NAD 1.0 μmol; a given amount of enzyme preparation; and 20 μmol secondary alcohol. The reaction is started by the addition of secondary alcohol. One unit of SADH enzyme activity represents the reduction of one nmole NAD per minute.
The effect of metal-chelating agents and chioreagents on the activity of the purified SADH enzyme were studied. […] The possibility of ethanol or n-propanol as an inhibitor was studied.

Compound | % inhibition of SADH activity | inhibition of SADH activity
O=C(O)CN(CCN(CC(=O)O)CC(=O)O)CC(=O)O [EDTA] | 63% | 
O=C(O)CI [iodoacetic acid] | 0% | 
CCCO [propan-1-ol] |  | did not inhibit

Same assay, conditions: final concentration of 1 mM; measured spectrofluorometrically

Compound | % inhibition of SADH activity
O=C(O)c1cc(SSc2ccc([N+](=O)[O-])c(C(=O)O)c2)ccc1[N+](=O)[O-] [5,5'-dithiobis(2-nitrobenzoic acid)] | 100%
[Co+2] [Co^++] | 0%
[Mg+2] [Mg^++] | 0%
[Mn+2] [Mn^++] | 0%
CCN1C(=O)C=CC1=O [N-ethylmalemide] | 6%
[N-]=[N+]=[N-] [Sodium azide] | 10%
[Zn+2] [Zn^++] | 0%
[Cu+2] [cupric] | 25%
[Fe+3] [ferric] | 35%
[Fe+2] [ferrous] | 50%
[Ni+2] [nickel] | 20%

System: Methylobacter vinelandii (CRL M5Y) NRRL B-11,218
Assay: Oxidation by washed cell suspensions of methane-grown cells
Format: cell-based
Conditions: methane-grown washed cells
Experimental: (§3) The pH of the nutrient medium was adjusted to 7.0 by the addition of acid or base and 50 ml samples of the nutrient medium were charged into a plurality of 300 ml shaker flasks. The shaker flasks were inoculated with an inoculating loop of cells from an agar plate containing homogeneous colonies of the microorganisms on the plate (the purity of the isolates was confirmed by microscopic examination. The isolates had been maintained on agar plates under an atmosphere of methane and air having a 1:1 v/v gas ratio which had been transferred evey two weeks. The gaseous phase of the inoculated flasks was then replaced with a gas mixture comprised of methane and air having a ratio of 1:1 on a v/v basis. The inoculated flasks were sealed air tight and were incubated on a rotary shaker of orbital radius 2.5 cm at 250 rpm and at 30° C. for two days until turbidity in the medium had developed.
(§4) The cells were harvested by centrifugation at 10,000×g. at 4° C. for 30 minutes. The cell pellet was washed twice with a 0.15 M phosphate buffer at a pH of 7.0 (containing 0.002 M MgCl2). The washed cells were then suspended in a 0.15 M phosphate buffer at pH 7.0.
(§5) A 0.5 ml sample of each washed cell suspension (2 mg cells) was put into 10 ml vials at 4° C. which were sealed with a rubber cap. The gaseous phase of the vials was removed with vacuum and then was replaced with a gas mixture of the oxidative substrate (e.g., methane) and oxygen at a 1:1 v/v ratio. The vials were then incubated at 30 ° C. on a rotary shaker at 300 rpm. Samples of product (3 μl) were withdrawn periodically with a microsyringe and the products were analyzed by gas chromatography (ionization flame detector column).
(§6) The newly discovered and isolated microorganism strains of the present invention were each grown aerobically in the presence of methane in the manner described above. The methane-grown microbial cells were then washed, recovered and put to use in oxidizing an oxidative substrate by the procedure described above except in the case of a liquid substrate 10 μl of the substrate were used.

Compound | conversion rate cyclohexane to cyclohexanol | oxidative conversion
C1CCCCC1 [Cyclohexane] | 1.5 μ moles/2 hr./mg. protein | 
c1ccccc1 [benzene] |  | no oxidative conversion was detected
Cc1ccccc1 [toluene] |  | no oxidative conversion was detected

System: Methylococcus capsulatus (CRL M1) NRRL B-11,219
Assay: as above
Format: cell-based
Conditions: methane-grown cell-suspension; pH 7.0; 3° C.
Experimental: as §3, §4, §5, §6

Compound | Conversion Rate to Ethanol
CC [Ethane] | 2.0 μmoles/hr./mg./protein

System: purified secondary alcohol dehydrogenase (SADH) from Pseudomonas sp. ATCC 21439
Assay: Kinetics and substrate specificity of purified SADH
Format: biochemical
Conditions: not given

Compound | oxidation by SADH
O=Cc1ccccc1 [benzaldehyde] | not oxidized
CCC(O)CO (centres unmarked) [butane 1,2-diol] | not oxidized
C=O [formaldehyde] | not oxidized
CC(C)CO [isobutanol] | not oxidized
Oc1ccccc1 [phenol] | not oxidized
O=C(O)CCC(=O)O [succinic acid] | not oxidized

Same assay, conditions: 2-butanol = 100%

Compound | relative percent rate of oxidation
CCC=O [propanal] | 2%

System: purified secondary alcohol dehydrogenase from Pichia sp. NRRL Y-11,328
Assay: Substrate specificity, electron acceptor and stoichiometry of purified yeast SADH
Format: biochemical
Conditions: not given

Compound | electron acceptor / carrier
cytochrome c | could not act as electron carrier

Same assay, conditions: examined spectrophotometrically

Compound | oxidation by the purified enzyme
CC(O)CO (centres unmarked) [1,2-propandiol] | not oxidized
CCCCCC(C)O (centres unmarked) [2-Heptanol] | not oxidized
CCCCCCC(C)O (centres unmarked) [2-octanol] | not oxidized
CCCCO [butan-1-ol] | not oxidized
CCC(O)CO (centres unmarked) [butane 1,2-diol] | not oxidized
CC(O)CCO (centres unmarked) [butane 1,3-diol] | not oxidized
CCO [ethanol] | not oxidized
CO [methanol] | not oxidized
CCCCCO [pentan-1-ol] | not oxidized
CCCO [propan-1-ol] | not oxidized

System: P(40) particulate fraction of Methylosinus sp. (CRL-15, NRRL B-11,202)
Assay: Effect of metals on propylene epoxidation and methane hydroxylation
Format: biochemical
Conditions: metal 10^-3 M; P(40) fraction; control 4.0
Experimental: as §1, §2
Since the methane mono-oxygenase from methane-utlizing bacteria is a copper or iron-containing protein (Tonge et al., J. Biochem., 161: 333-344 (1977)), we have examined the effect of copper and iron salts on the oxidation of methane and propylene by the P(40) particulate fraction of Methylosinus sp. (CRL-15, NRRL B-11,202). The rate of hydroxylation of methane to methanol and epoxidation of propylene to propylene oxide was increased twofold in the presence of added copper salts (Table XII).

Compound | Methane-Oxidizing Activity
[Cl][Cu] [Cuprous Chloride] | 7.2 μmoles/hr/mg protein
[Cl][Fe]([Cl])[Cl] [Ferric Chloride] | 4.8 μmoles/hr/mg protein
Ferrous Sulfate | 4.8 μmoles/hr/mg protein

Same assay, conditions: metal 10^-3 M; P(40) fraction; control […]

Compound | Propylene-Oxidizing Activity
[Cl][Cu] [Cuprous Chloride] | 9.2 μmoles/hr/mg protein
[Cl][Fe]([Cl])[Cl] [Ferric Chloride] | 5.8 μmoles/hr/mg protein
Ferrous Sulfate | 5.9 μmoles/hr/mg protein

System: Methylosinus trichosporium OB3b (NRRL B-11,196)
Assay: Oxidation by cell suspensions of methane-grown cells
Format: cell-based
Conditions: methane-grown cell-suspension; pH 7.0; 3° C.

Compound | Conversion Rate to Ethanol
CC [Ethane] | 1.3 μmoles/hr./mg./protein
